Source: US9540366B2, “Ring-fused heterocyclic compound” (Kyowa Hakko Kirin Co., Ltd., priority 2012, dated 2017)
Like-named read-outs stand apart in the source and are kept apart here. Values belong to the molecule of their own block, whether it stands above or below them.

Biological target: T1, human Cav3.2 T-type Ca2+ channel (Homo sapiens, UniProt O95180)
T1 construct: expressed in transfected cells; host or cells: KJMGER8 cells (Namalwa cell-derived cell line)
Assay: Inhibitory effect for intracellular calcium response via Cav3.2 T-type Ca2+ channels (FLIPR Calcium 3 Assay Kit)
Format: cell-based

T1 sequence (O95180 whole entry): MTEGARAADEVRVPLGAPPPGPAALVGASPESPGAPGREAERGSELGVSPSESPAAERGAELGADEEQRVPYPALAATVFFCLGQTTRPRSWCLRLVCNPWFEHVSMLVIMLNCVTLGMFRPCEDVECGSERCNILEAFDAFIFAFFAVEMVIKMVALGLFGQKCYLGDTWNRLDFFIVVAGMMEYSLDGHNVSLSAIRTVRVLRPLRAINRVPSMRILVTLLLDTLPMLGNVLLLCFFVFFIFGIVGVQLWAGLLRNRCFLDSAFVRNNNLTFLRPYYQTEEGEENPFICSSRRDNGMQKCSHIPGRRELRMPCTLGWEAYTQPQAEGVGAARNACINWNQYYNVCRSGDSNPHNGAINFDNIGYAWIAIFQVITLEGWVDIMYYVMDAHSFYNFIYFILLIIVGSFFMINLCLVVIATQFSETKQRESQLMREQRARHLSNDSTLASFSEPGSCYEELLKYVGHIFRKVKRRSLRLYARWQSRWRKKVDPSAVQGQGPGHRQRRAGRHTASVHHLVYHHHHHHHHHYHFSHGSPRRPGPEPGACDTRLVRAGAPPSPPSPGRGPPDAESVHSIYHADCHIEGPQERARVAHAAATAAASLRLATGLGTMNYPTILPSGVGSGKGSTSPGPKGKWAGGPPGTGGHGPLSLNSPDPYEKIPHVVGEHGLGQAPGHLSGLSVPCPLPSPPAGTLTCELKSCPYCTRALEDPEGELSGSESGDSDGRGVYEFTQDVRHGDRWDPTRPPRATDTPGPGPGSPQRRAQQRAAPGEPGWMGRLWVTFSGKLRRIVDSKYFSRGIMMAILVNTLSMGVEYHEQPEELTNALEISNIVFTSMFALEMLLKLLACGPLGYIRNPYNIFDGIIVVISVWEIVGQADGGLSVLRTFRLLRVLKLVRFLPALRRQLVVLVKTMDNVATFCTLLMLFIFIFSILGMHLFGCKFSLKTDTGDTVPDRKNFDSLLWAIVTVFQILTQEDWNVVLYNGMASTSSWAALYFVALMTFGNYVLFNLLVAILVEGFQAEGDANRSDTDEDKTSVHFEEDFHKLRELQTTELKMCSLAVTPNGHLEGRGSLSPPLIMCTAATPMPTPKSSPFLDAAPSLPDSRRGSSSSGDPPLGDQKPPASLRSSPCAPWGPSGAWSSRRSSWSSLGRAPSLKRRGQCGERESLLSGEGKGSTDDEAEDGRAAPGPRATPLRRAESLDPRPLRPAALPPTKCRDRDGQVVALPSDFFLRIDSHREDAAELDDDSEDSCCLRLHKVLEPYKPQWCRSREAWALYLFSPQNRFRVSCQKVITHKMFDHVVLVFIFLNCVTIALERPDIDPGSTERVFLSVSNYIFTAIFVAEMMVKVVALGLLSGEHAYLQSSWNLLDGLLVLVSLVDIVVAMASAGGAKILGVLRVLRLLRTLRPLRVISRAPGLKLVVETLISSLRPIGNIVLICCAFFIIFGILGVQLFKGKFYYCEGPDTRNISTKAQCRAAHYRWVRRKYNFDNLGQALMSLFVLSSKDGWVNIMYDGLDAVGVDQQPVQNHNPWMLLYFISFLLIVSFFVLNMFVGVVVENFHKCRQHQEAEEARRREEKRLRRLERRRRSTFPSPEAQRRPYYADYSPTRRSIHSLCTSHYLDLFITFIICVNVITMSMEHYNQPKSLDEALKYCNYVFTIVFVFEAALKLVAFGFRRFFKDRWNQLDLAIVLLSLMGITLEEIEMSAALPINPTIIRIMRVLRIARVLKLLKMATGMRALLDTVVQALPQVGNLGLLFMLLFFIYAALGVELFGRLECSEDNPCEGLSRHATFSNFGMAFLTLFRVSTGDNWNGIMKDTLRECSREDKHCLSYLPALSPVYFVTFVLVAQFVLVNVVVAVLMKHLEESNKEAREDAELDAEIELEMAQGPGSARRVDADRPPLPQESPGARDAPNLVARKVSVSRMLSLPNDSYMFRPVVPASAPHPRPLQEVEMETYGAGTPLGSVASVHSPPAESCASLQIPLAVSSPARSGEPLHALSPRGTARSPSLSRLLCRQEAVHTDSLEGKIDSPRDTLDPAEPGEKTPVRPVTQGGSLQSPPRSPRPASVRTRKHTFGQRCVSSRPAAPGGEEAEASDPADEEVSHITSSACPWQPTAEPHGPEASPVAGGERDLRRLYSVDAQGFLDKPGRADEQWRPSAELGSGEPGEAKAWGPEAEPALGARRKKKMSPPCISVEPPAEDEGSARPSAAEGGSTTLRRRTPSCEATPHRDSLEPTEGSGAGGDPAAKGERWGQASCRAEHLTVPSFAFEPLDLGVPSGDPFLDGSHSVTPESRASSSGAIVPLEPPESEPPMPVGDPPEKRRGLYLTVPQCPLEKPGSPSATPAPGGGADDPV

Structure (SMILES): N#Cc1cc(C(=O)NC2CC2)cc2nc(C(F)(F)F)c(CC3CCC(F)(F)CC3)n12 [Compound 76, 5-Cyano-N-cyclopropyl-3-[(4,4-difluorocyclohexyl)methyl]-2-(trifluoromethyl)imidazo[1,2-a]pyridine-7-carboxamide]
IC50: ≤ 0.1 µM

Structure (SMILES): Cc1cc(C(=O)NC2CC(F)(F)C2)cc2nc(C(C)(C)O)c(CC3CCC(F)(F)CC3)n12 [Compound 10, N-(3,3-Difluorocyclobutyl)-3-[(4,4-difluorocyclohexyl)methyl]-2-(2-hydroxypropan-2-yl)-5-methylimidazo[1,2-a]pyridine-7-carboxamide]
IC50: ≤ 0.1 µM

Structure (SMILES): CC(C)(CO)CNC(=O)c1cc(C#N)n2c(CC3CCC(F)(F)CC3)c(C(F)(F)F)nc2c1 [Compound 155, 5-Cyano-3-[(4,4-difluorocyclohexyl)methyl]-N-(3-hydroxy-2,2-dimethylpropyl)-2-(trifluoromethyl)imidazo[1,2-a]pyridine-7-carboxamide]
IC50: ≤ 0.1 µM

Structure (SMILES): Cc1cc(C(=O)Nc2ccccc2)cc2nc(C(C)(C)O)c(CC3CCC(F)(F)CC3)n12 [Compound 8, 3-[(4,4-Difluorocyclohexyl)methyl]-2-(2-hydroxypropan-2-yl)-5-methyl-N-phenylimidazo[1,2-a]pyridine-7-carboxamide]
IC50: ≤ 0.1 µM

Structure (SMILES): Cc1cc(C(=O)NC2CC3(COC3)C2)cc2nc(C(C)(C)C)c(CC3CCC(F)(F)CC3)n12 [Compound 137, 2-tert-Butyl-3-[(4,4-difluorocyclohexyl)methyl]-5-methyl-N-(2-oxaspiro[3.3]heptan-6-yl)imidazo[1,2-a]pyridine-7-carboxamide]
IC50: ≤ 0.1 µM

Structure (SMILES): CC(C)(C)OC(=O)NCCNC(=O)c1cc(Cl)n2c(CC3CCC(F)(F)CC3)c(C(F)(F)F)nc2c1 [Compound 115, tert-Butyl 2-{5-chloro-3-[(4,4-difluorocyclohexyl)methyl]-2-(trifluoromethyl)imidazo[1,2-a]pyridine-7-carboxamide}ethylcarbamate]
IC50: ≤ 0.1 µM

Structure (SMILES): N#CC1(NC(=O)c2cc(Cl)n3c(CC4CCC(F)(F)CC4)c(C(F)(F)F)nc3c2)CC1 [Compound 175, 5-Chloro-N-(1-cyanocyclopropyl)-3-[(4,4-difluorocyclohexyl)methyl]-2-(trifluoromethyl)imidazo[1,2-a]pyridine-7-carboxamide]
IC50: ≤ 0.1 µM

Structure (SMILES): O=C(NC1CCOCC1)c1cc(Br)n2c(CC3CCC(F)(F)CC3)c(C(F)(F)F)nc2c1 [Compound 39]
IC50: ≤ 0.1 µM

IC50 (human Cav3.2-expressing KJMGER8 cells (Namalwa-derived), calcium response induced by 5 mmol/L CaCl2, 3 μmol/L mibefradil as reference, read-out: IC50 for the human Cav3.2 T-type Ca2+ current): ≤ 0.1 µM
Structure (SMILES): CC1(C)CC(NC(=O)c2cc3nc(C(F)(F)F)c(CC4CCC(F)(F)CC4)n3c(Cl)c2Cl)CCO1 (stereo not drawn) [Compound 205, 5,6-Dichloro-3-[(4,4-difluorocyclohexyl)methyl]-N-(2,2-dimethyltetrahydro-2H-pyran-4-yl)-2-(trifluoromethyl)imidazo[1,2-a]pyridine-7-carboxamide]

Structure (SMILES): CC(C)(C)NC(=O)c1cc2nc(C(F)(F)F)c(CC3CCC(F)(F)CC3)n2c(Cl)c1Cl [Compound 227, N-tert-Butyl-5,6-dichloro-3-[(4,4-difluorocyclohexyl)methyl]-2-(trifluoromethyl)imidazo[1,2-a]pyridine-7-carboxamide]
IC50: ≤ 0.1 µM

Structure (SMILES): CC(NC(=O)c1cc(Cl)n2c(CC3CCC(F)(F)CC3)c(C(F)(F)F)nc2c1)C(=O)NC1CCOCC1 (stereo not drawn) [Compound 128, 5-Chloro-3-[(4,4-difluorocyclohexyl)methyl]-N-[1-oxo-1-(tetrahydro-2H-pyran-4-ylamino)propan-2-yl]-2-(trifluoromethyl)imidazo[1,2-a]pyridine-7-carboxamide]
IC50: ≤ 0.1 µM

Structure (SMILES): O=C(NC1CCOCC1)c1cc(CF)n2c(CC3CCC(F)(F)CC3)c(C(F)(F)F)nc2c1 [Compound 47, 3-[(4,4-Difluorocyclohexyl)methyl]-5-(fluoromethyl)-N-(tetrahydro-2H-pyran-4-yl)-2-(trifluoromethyl)imidazo[1,2-a]pyridine-7-carboxamide]
IC50: ≤ 0.1 µM
